Experimental data reported in patent US7084174B2, “Administration of isovaleryl L-carnitine to stimulate osteoblastic activity” (Sigma-Tau Industrie Farmaceutiche Riunite S.p.A., priority 2000, dated 2006).
Where a name gives a salt, the structure may show the parent alone.

Experiments:
osteocalcine = details: mice, during formation of the bone matrix; cited from earlier work
human osteoblasts [1] = assay: Cellular proliferation test; type: cell-based; details: for cells proliferation (number of cells, colorimetric test at 540 nm): human osteoblasts, medium without FCS with BSA, increasing doses, 5 days, FIG. 1 / FIG. 2
Description: (§1) The differentiated human osteoblasts were prepared starting from bone fragments obtained during surgical operation following the procedure described in Calcif. Tissue Int. 62: 362–365, 1998; and in Calcif. Tissue Int. 37: 453–460, 1985.
(§2) In short, bone fragments were undertaken to enzymatic digestion with collagenase (1 mg/ml) diluted in phosphate buffer in order to remove fibroblasts, haematic endothelial cells or bone marrow cells, if any.
(§3) The fragments so cleaned were maintained in culture in presence of a medium containing 20% of foetal calf serum (FCS) to obtain osteoblasts population for explant.
(§4) The cells so obtained were characterised to verify their osteoblastic phenotype then used for the experiments.
The cellular proliferation test was done growing the cells in 96 well plates, in medium without FCS, and with bovine serum albumin (BSA).
The cells were exposed to increasing doses of L-carnitine fumarate and isovaleryl L-carnitine fumarate. The positive control group was constituted by cells growing in presence of FCS (15%).
Every 24 ore, for 5 days, samples from plates in culture were fixed with a solution of paraformaldehyde at 3%, the cells were stained with crystal-violet at 0.5%, washed to eliminate the excess of stain and a solution of sodium citrate 0.1 M in ethanol was added. The number of the cells contained in the wells was evaluated by colorimetric test at 540 nm.

human osteoblasts [2] = assay: Production of collagen by incorporation of 3H-proline; type: cell-based; details: FIG. 3
Description: as §1, §2, §3, §4
The collagen production represents a method for the evaluation of the osteoblast activity.
This production was evaluated on semiconfluent cells grown on 24 wells plates, in medium without serum (FCS) containing 1 μCi/well of ^3H-proline, both in the wells of the control and in the wells where were present the tested compounds. After 4 hours of incubation in presence of the tracer the cells were lysed and undertaken to an extraction procedure (Journal of Bone and Mineral Research, 2000; Vol. 15(2); 188–97). […] The radioactivity of the cells, as index of the cells collagen synthesis, was evaluated with a beta-counter.

[3] = rat; cited from earlier work

Question: With `C[N+](C)(C)C[C@H](O)CC(=O)[O-]` [L-carnitine] as the molecule, how does the “production of osteocalcine (index of better calcification)” value (osteocalcine) read?
Answer: increase the production of osteocalcine

Question: For `CC(C)CC(=O)O[C@H](CC(=O)[O-])C[N+](C)(C)C` [isovaleryl L-carnitine fumarate], which “cells proliferation compared with L-carnitine fumarate” value (human osteoblasts [1]; FIG. 1 versus FIG. 2) is on record?
Answer: induces cells proliferation (FIG. 1) in a more potent way

Question: And the “cellular proliferation activity at 10^-3 M compared with L-carnitine fumarate at 10^-2 M” value (human osteoblasts [1]; dose 10 times lower than that of L-carnitine fumarate)?
Answer: has the same cellular proliferation activity

Question: And the “cells proliferation (number of cells, colorimetric test at 540 nm)” value (human osteoblasts [1])?
Answer: promotes cells proliferation

Question: What about the “production of collagen respect to the same doses of L-carnitine fumarate” value (human osteoblasts [2]; Student t test) of the same molecule?
Answer: favouring activity for the production of collagen in a significant way

Question: And the “production of collagen (3H-proline incorporation) respect to the control sample” value (human osteoblasts [2]; semiconfluent cells, medium without serum, 4 hours of incubation with tracer)?
Answer: increases the production of collagen in an higher way respect to the control sample

Question: With `CC(=O)O[C@H](CC(=O)[O-])C[N+](C)(C)C` [acetyl L-carnitine] as the molecule, how does the “production of osteocalcine (index of better calcification)” value (osteocalcine) read?
Answer: reduces the production of this marker

Question: For `C[N+](C)(C)C[C@H](O)CC(=O)[O-].O=C(O)/C=C/C(=O)O` [L-carnitine fumarate, reference compound], which “cells proliferation (number of cells, colorimetric test at 540 nm)” value (human osteoblasts [1]) is on record?
Answer: cells proliferation induced by L-carnitine fumarate

Question: With `C[N+](C)(C)CC(O)CC(=O)[O-]` (racemic) [D,L-carnitine] as the molecule, how does the bone calcium [3] read?
Answer: increases the bone calcium
